The record followed here is patent publication US8093383B2, “P70 S6 kinase inhibitors” (Eli Lilly and Company, priority 2007, dated 2012).

Marks after values point to notes of the source that are not given here.

Series [1] deals with T1, p70 S6K (Homo sapiens, UniProt P23443).
T1 construct: endogenous in cells; host or cells: HCT 116 human colon carcinoma xenograft tumours in athymic nude mice
As to the kind of experiment: Determination of p70 S6K In Vivo Target Inhibition (HCT 116). Conditions: HCT 116 xenograft, PO; potency based on plasma exposure; phosphorylation of S6RP serine 240/244. Also on record: species or system athymic nude mice. The method, then:
HCT 116 human colon carcinoma cells* (5×10^6) are subcutaneously implanted into the flank of athymic nude mice in 0.2 mL of matrigel. Two weeks post-implantation, mice are dosed PO according to a time course, single dose/single time point, or dose response protocol for the determination of TMED50 (threshold minimum effective dose). Tumors are flash frozen at harvest and blood is collected for the determination of parent compound plasma exposure and the calculation of TMEC50 (threshold minimum effective concentration) in the case of dose response studies. Tumors or tissues are homogenized in XY Lysis buffer (10 μg/mL Leupeptin, 10 μg/mL Trypsin-Chymotrypsin Inhibitor, 10 μg/mL Tosyl phenylalanyl chloromethyl ketone (TPCK), 10 μg/mL Aprotinin, 60 mM Beta-Glycerol Phosphate, 1% Triton X100, 25 mM Tris pH 7.5, 2.5 mM Pyrophosphate, 150 mM NaCl, 2 mM p-tosyl-L-arginine methyl ester (TAME), 15 mM para-nitrophenyl phosphate (pNPP), 5 mM Benzamidine, 1 mM Na Vanadate, 10 mM NaF, 50 μg/mL phenylmethane sulofnyl fluoride (PMSF), 1 mM DTT, 15 mM EDTA pH 8.0, 5 mM EGTA pH 8.0, 1 μM Microcystin, 1 μM Okadaic Acid, and 1 Roche Complete protease inhibitor mini-tablet per 10 mL) using Lysing Matrix A tubes (MP Biomedicals, Solon, Ohio, cat# 6910-500) and a BIO101 Thermo Savant Fast Prep FP12. Lysates are aliquoted and either assayed immediately or stored at −80° C. for later testing. In Vivo Target Inhibition of p70 S6K is measured utilizing Meso Scale Discovery (Gaithersburg, Md.) ELISA technology to assess effects of the compound on phosphorylation of the serine 240/244 site of the downstream effector S6RP. Phosphorylation of p70 S6K(T389) and Akt(S473) is also assessed using this technology in a multiplex format. In summary, 20 μg of lysate is added to a carbon electrode 96-well plate pre-spotted with the appropriate capture antibodies. The protein of interest is probed using a ruthenium labeled detection antibody. Upon the passage of current over the electrode in the presence of read buffer containing the co-reactant TPA, electro-chemiluminescence results in the generation of light which is quantified and recorded using the MSD Sector 6000 instrument. For each study, percent inhibitions are calculated relative to the vehicle control group and ANOVA analysis is performed using the JMP software package for the determination of statistical significance. The following compounds were tested essentially as described above and have the following potencies based on plasma exposure.

For series [2], the system named is HCT 116 human colon carcinoma cells. The series is described as follows: Determination of p70 S6K In Vivo Efficacy (HCT 116 xenograft tumor growth). Also on record: species or system athymic nude mice. Here is the method: HCT 116 human colon carcinoma cells (5×10^6) are subcutaneously implanted into the flank of athymic nude mice in 0.2 mL of matrigel. One week post-implantation, mice are dosed PO according to the pharmacokinetics and the pharmacodynamics of the molecule to maintain 30-50% or 60-90% pS6 Inhibition over a 24 hr period. Dosing is continued for at least 21 days. Tumor volumes are measured bi-weekly to evaluate drug related tumor growth reduction utilizing standard methods. At the end of the study, tumors are flash-frozen at harvest and blood is collected for the determination of parent compound plasma exposure. The compound of Example 5 was tested essentially as described above.

Series [3] relates to U87MG. As to the kind of experiment: Cell assay (Alamar Blue, 72 hours) U87MG. Particulars: Homo sapiens, U-87 MG. Format: cell-based. Here is the method: (§1) Cells are maintained, then typsinized and suspended in Dulbecco's modified Eagle's medium (DMEM_containing 10% fetal bovine serum (FBS), 25 mM 4-(2-hydroxyethyl)-1-piperazineethanesulfonic acid (HEPES), 1.0 mM Sodium Pyruvate and 0.1 mM Non Essential Amino Acids (NEAA). 1×10^3 HCT116 and 2×10^3 Cells may be seeded in 50 μL in 96 well plates and incubated in 5% CO2 at 37° C. overnight. Compounds are prepared at desired starting concentrations and serial diluted in DMSO. 4 μL of diluted compounds are transferred in 1 mL 10% FBS DMEM to make up 2× concentrations as added 50 μL to the 50 μL in the presence of cells for dosing. The plates are incubated at 37° C. in 5% CO2 for 72 hours. At the end of incubation period, 10 μL Alamar Blue is added and after 2 hours reaction the measurement is determined in CytoFluor at 530 nm excitation, 580 nm emission and Gain 45. The following compounds were tested in the following cell lines essentially as described above.

Series [4] concerns the target T2, P70 S6 kinase (T412E) (Homo sapiens, UniProt P23443, T412E).
T2 construct: purchased Upstate USA, Inc. (Charlottesville, Va.)
As to the kind of experiment: Inhibition of p70S6 Kinase. The format is biochemical. Conditions: 25 μM ATP, 5 nM enzyme, relative IC50. Here is the method:
P70 S6 kinase (T412E) from Upstate USA, Inc. (Charlottesville, Va.) is preincubated with 10 concentrations of compound in a 15 μL volume for 30 min at room temperature in 96-well plates. PKA, PKC, MAPKAP-K1 Substrate from AnaSpec (San Jose, Calif.) and gamma ^33P-ATP from PerkinElmer (Waltham, Mass.) is added to initiate the reaction which is allowed to proceed for 60 minutes at room temperature in a final 25 μL volume under the following conditions: 10 mM HEPES pH 7.5, 10 mM MgCl2, 1.0 mM DTT, 0.082 mM EGTA, 0.005% TRITON X-100™, 25 μM, 25 μM ATP, 40 μCi/mL, 4 μM substrate, and 5 nM enzyme. Reactions are terminated with 75 μL 10% H3PO4 and 85 μL of quenched reaction mix is transferred to a phosphocellulose filter plate (Millipore #MAPHN0B50) and washed with 0.5% H3PO4 using a vacuum manifold. 100 μL of Microscint 20 (Packard #60113621) is added to each well and plates with liner are counted using a Wallac Beta Counter. Relative IC50 values are calculated by non-linear four parameter fitting.

The subject of series [5] is A549. As to the kind of experiment: Cell assay (Alamar Blue, 72 hours) A549. The format is cell-based. Particulars: Homo sapiens. Here is the method: as §1

T2 sequence (P23443 whole entry T412E): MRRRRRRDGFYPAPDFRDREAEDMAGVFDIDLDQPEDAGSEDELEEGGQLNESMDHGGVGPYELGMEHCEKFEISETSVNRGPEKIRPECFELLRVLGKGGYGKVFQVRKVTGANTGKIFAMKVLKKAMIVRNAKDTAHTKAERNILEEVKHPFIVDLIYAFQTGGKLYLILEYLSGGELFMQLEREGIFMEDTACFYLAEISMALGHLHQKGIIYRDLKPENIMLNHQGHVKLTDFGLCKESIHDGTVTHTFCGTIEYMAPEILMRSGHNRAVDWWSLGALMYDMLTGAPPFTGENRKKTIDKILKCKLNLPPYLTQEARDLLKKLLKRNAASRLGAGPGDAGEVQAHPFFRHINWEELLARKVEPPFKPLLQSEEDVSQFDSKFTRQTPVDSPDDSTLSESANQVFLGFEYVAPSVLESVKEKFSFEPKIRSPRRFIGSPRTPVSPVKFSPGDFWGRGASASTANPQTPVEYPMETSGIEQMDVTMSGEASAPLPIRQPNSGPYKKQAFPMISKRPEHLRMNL
T1 sequence (P23443 whole entry): as the sequence (P23443 whole entry T412E) above, with E412T counted along it

The molecule `Cl.FC(F)(F)c1cccc(-c2c[nH]c(C3CCN(c4ncnc5[nH]ncc45)CC3)n2)c1` [Example 5, 4-{4-[4-(3-(Trifluoromethyl)-phenyl)-1H-imidazol-2-yl]-piperidin-1-yl}-1H-pyrazolo[3,4-d]pyrimidine hydrochloride] yielded a melting point of 306 °C. This molecule registered an IC50 in series [1] of 7.3 µM. Besides, in series [2] (30 mg/kg PO (BID × 21), Day 8, mean of 10 animals), the “Tumor Volume” value came to 36.5 mm^3. For the same molecule, the “Tumor Volume” value in series [2] (30 mg/kg PO (BID × 21), Day 13, mean of 10 animals) stood at 58.7 mm^3. In series [2] (30 mg/kg PO (BID × 21), Day 16, mean of 10 animals), the “Tumor Volume” value worked out at 90.9 mm^3. The “Tumor Volume” value in series [2] (30 mg/kg PO (BID × 21), Day 20, mean of 10 animals) was 134.6 mm^3. The “Tumor Volume” value in series [2] (30 mg/kg PO (BID × 21), Day 23, mean of 10 animals) stood at 192.7 mm^3. Further, the “Tumor Volume” value in series [2] (30 mg/kg PO (BID × 21), Day 27, mean of 10 animals) was found to be 296.3 mm^3. Further, the “Tumor Volume” value in series [2] (60 mg/kg PO (BID × 21), Day 8, mean of 10 animals ± standard deviation) is on record as 28.8 ± 2.6^b mm^3. The “Tumor Volume” value in series [2] (60 mg/kg PO (BID × 21), Day 13, mean of 10 animals ± standard deviation) is 42.1 ± 6.2*** mm^3. The “Tumor Volume” value in series [2] (60 mg/kg PO (BID × 21), Day 16, mean of 10 animals ± standard deviation) is 72.1 ± 11.8*** mm^3. Besides, the “Tumor Volume” value in series [2] (60 mg/kg PO (BID × 21), Day 20, mean of 10 animals ± standard deviation) is listed as 139.0 ± 26.4*** mm^3. In addition, the “Tumor Volume” value in series [2] (60 mg/kg PO (BID × 21), Day 23, mean of 10 animals ± standard deviation) is recorded as 188.4 ± 25.9*** mm^3. In series [2] (60 mg/kg PO (BID × 21), Day 27, mean of 10 animals ± standard deviation), the “Tumor Volume” value is 280.0 ± 36.1*** mm^3. The “Tumor Volume” value in series [2] (60 mg/kg PO (QD × 21), Day 8, mean of 10 animals ± standard deviation) is given as 30.6 ± 3.4^b mm^3. Moreover, the “Tumor Volume” value in series [2] (60 mg/kg PO (QD × 21), Day 13, mean of 10 animals ± standard deviation) was 57.8 ± 10.7** mm^3. Further, the “Tumor Volume” value in series [2] (60 mg/kg PO (QD × 21), Day 16, mean of 10 animals ± standard deviation) is 85.0 ± 13.3*** mm^3. Moreover, the “Tumor Volume” value in series [2] (60 mg/kg PO (QD × 21), Day 20, mean of 10 animals ± standard deviation) is reported as 142.5 ± 18.4*** mm^3. Also, the “Tumor Volume” value in series [2] (60 mg/kg PO (QD × 21), Day 23, mean of 10 animals ± standard deviation) is recorded as 194.5 ± 25.7*** mm^3. Also, the “Tumor Volume” value in series [2] (60 mg/kg PO (QD × 21), Day 27, mean of 10 animals ± standard deviation) was 252.7 ± 34.4*** mm^3. Also, the IC50 in series [3] was 14.6 µM. The half-inhibitory concentration (IC50) in series [4] was 0.0294 µM. Further, the IC50 in series [5] stood at 22 µM.
